According to paper PMC8776995 (Frontiers in Chemistry, 2022):
“And” between values parts separate entries of the source, which are not always exact repeats. Equal entries are not always repeated. Where two headings read alike, the source gives them in different places. Each block holds one compound with its values, some of them ahead of it.

What was measured:
wild-type EGFR = wild-type EGFR (Homo sapiens, UniProt P00533); assay: EGFR kinase assay (ELISA); conditions: for IC50: IC50 (μM) EGFR, ELISA, 3 μmol/L ATP; for A450: raw ELISA absorbance
Sequence of wild-type EGFR (P00533 25-1210): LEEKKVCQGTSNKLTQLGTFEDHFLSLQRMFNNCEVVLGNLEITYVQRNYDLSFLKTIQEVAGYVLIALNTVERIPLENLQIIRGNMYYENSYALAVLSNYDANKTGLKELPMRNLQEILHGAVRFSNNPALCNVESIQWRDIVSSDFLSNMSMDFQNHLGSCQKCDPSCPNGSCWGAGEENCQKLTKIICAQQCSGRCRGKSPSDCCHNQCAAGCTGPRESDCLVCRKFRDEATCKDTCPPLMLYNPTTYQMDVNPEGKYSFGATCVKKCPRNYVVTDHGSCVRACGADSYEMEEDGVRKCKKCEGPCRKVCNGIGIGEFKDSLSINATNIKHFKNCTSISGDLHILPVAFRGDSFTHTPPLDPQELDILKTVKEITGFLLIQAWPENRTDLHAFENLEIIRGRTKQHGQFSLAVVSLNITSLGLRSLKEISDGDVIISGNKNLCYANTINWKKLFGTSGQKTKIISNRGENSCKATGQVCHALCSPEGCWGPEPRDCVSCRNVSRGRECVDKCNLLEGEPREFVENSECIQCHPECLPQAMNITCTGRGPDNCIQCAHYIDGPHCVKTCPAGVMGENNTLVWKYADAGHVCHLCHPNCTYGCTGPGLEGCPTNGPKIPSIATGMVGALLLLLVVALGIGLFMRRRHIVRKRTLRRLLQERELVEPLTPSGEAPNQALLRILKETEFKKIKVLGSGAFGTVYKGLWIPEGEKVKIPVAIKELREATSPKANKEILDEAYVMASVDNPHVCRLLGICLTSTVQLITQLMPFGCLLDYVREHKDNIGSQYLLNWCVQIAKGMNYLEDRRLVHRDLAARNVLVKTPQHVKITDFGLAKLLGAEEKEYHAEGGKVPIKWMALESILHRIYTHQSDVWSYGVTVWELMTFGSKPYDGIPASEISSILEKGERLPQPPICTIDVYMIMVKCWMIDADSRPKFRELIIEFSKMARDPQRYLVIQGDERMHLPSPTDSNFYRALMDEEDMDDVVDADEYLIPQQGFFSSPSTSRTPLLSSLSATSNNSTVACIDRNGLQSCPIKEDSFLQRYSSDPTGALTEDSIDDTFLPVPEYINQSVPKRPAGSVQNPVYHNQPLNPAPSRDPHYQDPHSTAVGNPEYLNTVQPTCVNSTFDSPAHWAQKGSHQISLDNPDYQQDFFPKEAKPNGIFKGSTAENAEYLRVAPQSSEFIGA

H460 cells = assay: CCK-8 antiproliferation assay, H460; conditions: for IC50: NCI-H460, 48 h, read-out: IC50 (μM) H460, CCK-8, 48 h, average ± SD of three independent experiments
A549 cells = assay: CCK-8 antiproliferation assay, A549; conditions: for Inhibitory efficacy: A549 cells; for IC50: A549, 48 h, read-out: IC50 (μM) A549, CCK-8, 48 h, average ± SD of three independent experiments
PC-9 cells = assay: CCK-8 antiproliferation assay, PC-9; conditions: for IC50: PC-9, 48 h, read-out: IC50 (μM) PC-9; for Inhibitory efficacy: single repeats (Repeat 1-3), given as fraction
Procedure: The compounds were dissolved in DMSO to make a 20 μM stock solution and diluted to the concentration of working solutions with complete growth medium before administration.
Cells were seeded in 96-well plates: 3,000–5,000 cells/well in 100 ul. One day after seeding, the test compounds at concentration between 1.0 and 16.0 μ M or 0.1% DMSO (as control) were added to cells in triplicate. 48 h later, CCK-8 was added and incubated the plate for 1–4 h in the incubator. The absorbance at 450 nm were measured using a microplate reader (Bio-Tek).

H1975 cells = assay: CCK-8 antiproliferation assay, H1975; conditions: for Inhibitory efficacy: H1975 cells; for IC50: NCI-H1975, 48 h, read-out: IC50 (μM) H1975, CCK-8, 48 h, average ± SD of three independent experiments
[1] = 2uM, given as fraction, Repeat 1-3
[2] = 4uM, given as fraction, Repeat 1-3
[3] = 8uM, given as fraction, Repeat 1-3
[4] = 16uM, given as fraction, Repeat 1-3
[5] = Homo sapiens, A549, read-out: Inhibitory efficacy, A549 cells, 16uM, given as fraction, Repeat 1-3
[6] = Homo sapiens, NCI-H1975, read-out: Inhibitory efficacy, H1975 cells, 4uM, given as fraction, Repeat 1-3
[7] = Homo sapiens, NCI-H1975, read-out: Inhibitory efficacy, H1975 cells, 8uM, given as fraction, Repeat 1-3
[8] = Homo sapiens, NCI-H1975, read-out: Inhibitory efficacy, H1975 cells, 16uM, given as fraction, Repeat 1-3

melting point: 88 to 91 °C
inhibition at 0.0003 µM (wild-type EGFR; 0.3 nM, duplicate wells, calculated from A450): 6.05%
Inhibition (wild-type EGFR; 0.3 nM, duplicate wells, calculated from A450, 0.0003 µM): 3.39
inhibition at 0.003 µM (wild-type EGFR; 3 nM, duplicate wells, calculated from A450): 8.07%
Inhibition (wild-type EGFR; 3 nM, duplicate wells, calculated from A450, 0.003 µM): 4.0678
inhibition at 0.03 µM (wild-type EGFR; 30 nM, duplicate wells, calculated from A450): 9.08%
Inhibition (wild-type EGFR; 30 nM, duplicate wells, calculated from A450, 0.03 µM): 6.78
inhibition at 0.3 µM (wild-type EGFR; 300 nM, duplicate wells, calculated from A450): 10.9%
Inhibition (wild-type EGFR; 300 nM, duplicate wells, calculated from A450, 0.3 µM): 7.627
inhibition at 3 µM (wild-type EGFR; 3000 nM, duplicate wells, calculated from A450): 13.4%
Inhibition (wild-type EGFR; 3000 nM, duplicate wells, calculated from A450, 3 µM): 20.339
inhibition at 30 µM (wild-type EGFR; 30000 nM, duplicate wells, calculated from A450): 61%
Inhibition (wild-type EGFR; 30000 nM, duplicate wells, calculated from A450, 30 µM): 71.3559
IC50 (wild-type EGFR): 14.7 µM
IC50 (H460 cells; Homo sapiens): > 100 µM
IC50 (A549 cells; Homo sapiens): > 100 µM
IC50 (PC-9 cells; Homo sapiens): 11.5 ± 1.57 µM
IC50 (H1975 cells; Homo sapiens): 13.1 ± 4.41 µM
Compound: COCCOc1cc2ncnc(Nc3cccc(-c4cn(-c5ccc(F)cc5)nn4)c3)c2cc1OCCOC [e7, [6,7-Bis-(2-methoxy-ethoxy)-quinazolin-4-yl]-{3-[1-(4-fluoro-phenyl)-1H-[1,2,3]triazol-4-yl]-phenyl}-amine]
Inhibitory efficacy (H460 cells; H460, 1uM, single repeats (Repeat 1-3), given as fraction, 1 µM): 0.233 and 0.152
Inhibitory efficacy (H460 cells; H460, 2uM, single repeats (Repeat 1-3), given as fraction, 2 µM): 0.3048 and 0.3792
Inhibitory efficacy (H460 cells; H460, 4uM, single repeats (Repeat 1-3), given as fraction, 4 µM): 0.2364 and 0.2572
Inhibitory efficacy (H460 cells; H460, 8uM, single repeats (Repeat 1-3), given as fraction, 8 µM): 0.2581 and 0.2146
Inhibitory efficacy (H460 cells; H460, 16uM, single repeats (Repeat 1-3), given as fraction, 16 µM): 0.3099 and 0.4184
inhibition at 1 µM (H460 cells; Homo sapiens, NCI-H460, read-out: Inhibitory efficacy, H460, 1uM, single repeats (Repeat 1-3), given as fraction): 13.2%
inhibition at 2 µM (H460 cells; Homo sapiens, NCI-H460, read-out: Inhibitory efficacy, H460, 2uM, single repeats (Repeat 1-3), given as fraction): 30.4%
inhibition at 4 µM (H460 cells; Homo sapiens, NCI-H460, read-out: Inhibitory efficacy, H460, 4uM, single repeats (Repeat 1-3), given as fraction): 30.3%
inhibition at 8 µM (H460 cells; Homo sapiens, NCI-H460, read-out: Inhibitory efficacy, H460, 8uM, single repeats (Repeat 1-3), given as fraction): 29.6%
inhibition at 16 µM (H460 cells; Homo sapiens, NCI-H460, read-out: Inhibitory efficacy, H460, 16uM, single repeats (Repeat 1-3), given as fraction): 26.7%
Inhibitory efficacy (A549 cells; 1uM, given as fraction, Repeat 1-3): 0.3498 and 0.2466
Inhibitory efficacy (A549 cells; [1]): 0.3315 and 0.2534
Inhibitory efficacy (A549 cells; [2]): 0.2813 and 0.2524
Inhibitory efficacy (A549 cells; [3]): 0.2486 and 0.3238
Inhibitory efficacy (A549 cells; [4]): 0.291 and 0.2842
inhibition at 1 µM (A549 cells; Homo sapiens, A549, read-out: Inhibitory efficacy, A549 cells, 1uM, given as fraction, Repeat 1-3): 27.5%
inhibition at 2 µM (A549 cells; Homo sapiens, A549, read-out: Inhibitory efficacy, A549 cells, 2uM, given as fraction, Repeat 1-3): 24.8%
inhibition at 4 µM (A549 cells; Homo sapiens, A549, read-out: Inhibitory efficacy, A549 cells, 4uM, given as fraction, Repeat 1-3): 30.8%
inhibition at 8 µM (A549 cells; Homo sapiens, A549, read-out: Inhibitory efficacy, A549 cells, 8uM, given as fraction, Repeat 1-3): 29.7%
inhibition at 16 µM (A549 cells; [5]): 37.2%
inhibition at 4 µM (PC-9 cells; Homo sapiens, PC-9, read-out: Inhibitory efficacy, PC-9, 4uM, single repeats (Repeat 1-3), given as fraction): 21.3%
inhibition at 8 µM (PC-9 cells; Homo sapiens, PC-9, read-out: Inhibitory efficacy, PC-9, 8uM, single repeats (Repeat 1-3), given as fraction): 41.9%
inhibition at 16 µM (PC-9 cells; Homo sapiens, PC-9, read-out: Inhibitory efficacy, PC-9, 16uM, single repeats (Repeat 1-3), given as fraction): 62.5%
Inhibitory efficacy (PC-9 cells; PC-9, 4uM, 4 µM): 0.2652 and 0.1935
Inhibitory efficacy (PC-9 cells; PC-9, 8uM, 8 µM): 0.448 and 0.4014
Inhibitory efficacy (PC-9 cells; PC-9, 16uM, 16 µM): 0.5556 and 0.543
Inhibitory efficacy (H1975 cells; [1]): 0.2223 and 0.2165
Inhibitory efficacy (H1975 cells; [2]): 0.3132 and 0.3374
Inhibitory efficacy (H1975 cells; [3]): 0.4723 and 0.4708
Inhibitory efficacy (H1975 cells; [4]): 0.4151 and 0.4664
inhibition at 2 µM (H1975 cells; Homo sapiens, NCI-H1975, read-out: Inhibitory efficacy, H1975 cells, 2uM, given as fraction, Repeat 1-3): 29.3%
inhibition at 4 µM (H1975 cells; [6]): 38.9%
inhibition at 8 µM (H1975 cells; [7]): 50.2%
inhibition at 16 µM (H1975 cells; [8]): 54.1%

melting point: 94 to 97 °C
IC50 (wild-type EGFR): 68 µM
inhibition at 100 fM (wild-type EGFR; concentration 0.0001 nM (reference for normalisation), one value per replicate column): 0%
inhibition at 30 pM (wild-type EGFR; concentration 0.03 nM, one value per replicate column): 11.8%
Inhibition (wild-type EGFR; concentration 0.03 nM, one value per replicate column, 3e-05 µM): 14.7465
inhibition at 0.0003 µM (wild-type EGFR; concentration 0.3 nM, one value per replicate column): 17.6%
Inhibition (wild-type EGFR; concentration 0.3 nM, one value per replicate column, 0.0003 µM): 17.0507
inhibition at 0.003 µM (wild-type EGFR; concentration 3 nM, one value per replicate column): 19.3%
Inhibition (wild-type EGFR; concentration 3 nM, one value per replicate column, 0.003 µM): 17.0507
inhibition at 0.03 µM (wild-type EGFR; concentration 30 nM, one value per replicate column): 37.4%
Inhibition (wild-type EGFR; concentration 30 nM, one value per replicate column, 0.03 µM): 28.1106
inhibition at 0.3 µM (wild-type EGFR; concentration 300 nM, one value per replicate column): 42.2%
Inhibition (wild-type EGFR; concentration 300 nM, one value per replicate column, 0.3 µM): 35.4839
inhibition at 3 µM (wild-type EGFR; concentration 3000 nM, one value per replicate column): 42.8%
Inhibition (wild-type EGFR; concentration 3000 nM, one value per replicate column, 3 µM): 36.8664
inhibition at 30 µM (wild-type EGFR; concentration 30000 nM, one value per replicate column): 44.9%
Inhibition (wild-type EGFR; concentration 30000 nM, one value per replicate column, 30 µM): 39.1705
A450 (wild-type EGFR; concentration 0.0001 nM): 0.398 and 0.464
A450 (wild-type EGFR; concentration 0.03 nM): 0.376 and 0.432
A450 (wild-type EGFR; concentration 0.3 nM): 0.365 and 0.427
A450 (wild-type EGFR; concentration 3 nM): 0.362 and 0.427
A450 (wild-type EGFR; concentration 30 nM): 0.328 and 0.403
A450 (wild-type EGFR; concentration 300 nM): 0.319 and 0.387
A450 (wild-type EGFR; concentration 3000 nM): 0.318 and 0.384
A450 (wild-type EGFR; concentration 30000 nM): 0.314 and 0.379
IC50 (H460 cells; Homo sapiens): > 100 µM
IC50 (A549 cells; Homo sapiens): > 100 µM
IC50 (PC-9 cells; Homo sapiens): > 100 µM
IC50 (H1975 cells; Homo sapiens): 16.8 ± 1.02 µM
Compound: COCCOc1cc2ncnc(Nc3cccc(-c4cn(Cc5ccccc5Br)nn4)c3)c2cc1OCCOC [e3, [6,7-Bis-(2-methoxy-ethoxy)-quinazolin-4-yl]-{3-[1-(2-bromo-benzyl)-1H-[1,2,3]triazol-4-yl]-phenyl}-amine]
Inhibitory efficacy (H460 cells; H460 cells, 1uM, given as fraction, Repeat 1-3): 0.2775 and 0.3081
Inhibitory efficacy (H460 cells; H460 cells, 2uM, given as fraction, Repeat 1-3): 0.3143 and 0.3387
Inhibitory efficacy (H460 cells; H460 cells, 8uM, given as fraction, Repeat 1-3): 0.3004 and 0.3491
inhibition at 1 µM (H460 cells; Homo sapiens, NCI-H460, read-out: Inhibitory efficacy, H460 cells, 1uM, given as fraction, Repeat 1-3): 30.3%
inhibition at 2 µM (H460 cells; Homo sapiens, NCI-H460, read-out: Inhibitory efficacy, H460 cells, 2uM, given as fraction, Repeat 1-3): 35%
inhibition at 8 µM (H460 cells; Homo sapiens, NCI-H460, read-out: Inhibitory efficacy, H460 cells, 8uM, given as fraction, Repeat 1-3): 29%
Inhibitory efficacy (A549 cells; [4]): 0.1506 and 0.2274
inhibition at 16 µM (A549 cells; [5]): 15.2%
Inhibitory efficacy (H1975 cells; [2]): 0.09844 and 0.1507
Inhibitory efficacy (H1975 cells; [3]): 0.1976 and 0.2347
Inhibitory efficacy (H1975 cells; [4]): 0.494 and 0.5082
inhibition at 4 µM (H1975 cells; [6]): 11.4%
inhibition at 8 µM (H1975 cells; [7]): 25%
inhibition at 16 µM (H1975 cells; [8]): 44.1%
